Reference: patent publication US10131675B2 (Genentech, Inc., priority 2015, dated 2018)

Each compound was assayed against DLK (Homo sapiens (Human), UniProt Q12852) (assay: DLK TR-FRET Inhibition Assay). Conditions: N-terminally GST-tagged DLK (catalytic domain amino acid 1-520), MKK4 K131M substrate, 30 μM ATP; read-out: DLK HTRF Ki.
Format: biochemical
Outline: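 GST-tagged DLK catalytic domain (aa 1-520, 5 nM) phosphorylates 40 nM HIS-tagged MKK4 K131M with 30 μM ATP, pH 7.5, 60 min at ambient temperature; compounds 1:3 serial from 20 uM. Phospho-MKK4 detected by TR-FRET (Eu-cryptate anti-phospho-MKK4/D2 anti-HIS) after 3 h.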

DLK, sequence (Q12852 1-520): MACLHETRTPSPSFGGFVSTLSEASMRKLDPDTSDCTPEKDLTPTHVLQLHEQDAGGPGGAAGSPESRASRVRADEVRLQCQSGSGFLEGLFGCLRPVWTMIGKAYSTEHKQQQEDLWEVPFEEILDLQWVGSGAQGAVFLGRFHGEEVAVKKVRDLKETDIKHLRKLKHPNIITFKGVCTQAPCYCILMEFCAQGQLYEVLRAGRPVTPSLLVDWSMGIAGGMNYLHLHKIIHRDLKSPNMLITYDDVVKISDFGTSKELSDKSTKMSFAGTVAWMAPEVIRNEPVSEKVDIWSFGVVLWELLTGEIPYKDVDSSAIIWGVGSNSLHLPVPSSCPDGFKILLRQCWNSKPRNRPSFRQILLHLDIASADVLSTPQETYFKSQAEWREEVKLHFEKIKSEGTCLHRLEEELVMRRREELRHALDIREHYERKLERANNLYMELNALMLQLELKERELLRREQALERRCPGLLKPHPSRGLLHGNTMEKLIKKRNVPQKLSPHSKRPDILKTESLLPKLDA

Row | Structure (SMILES) | Ki
1 | COc1nc(-c2cnc3[nH]cc(C(F)(F)F)c3c2)nc2c1nc1n2CCOC1(C)C [Example 87] | 14 nM
2 | CC1(C)OCCn2c1nc1c(N3CC(O)C3)nc(-c3cnc4[nH]cc(Cl)c4c3)nc12 [Example 40, 1-[3-(3-Chloro-1H-pyrrolo[2,3-b]pyridin-5-yl)-8,8-dimethyl-5,6-dihydro-8H-7-oxa-2,4,4b,9-tetraaza-fluoren-1-yl]-azetidin-3-ol] | 5.91 nM
3 | CC1(C)OCCn2c1nc1c(OC3CCCC3)nc(-c3cnc(N)nc3)nc12 [Example 84, 5-(4-(cyclopentyloxy)-6,6-dimethyl-8,9-dihydro-6H-[1,4]oxazino[4,3-e]purin-2-yl)pyrimidin-2-amine] | 357 nM
4 | CC1(C)OCCn2c1nc1c(N3CCC(F)(F)C3)nc(-c3cnc(N)c(Cl)c3)nc12 [Example 81] | 272 nM
5 | Nc1ncc(-c2nc(N3CC4CC3C4)c3nc4n(c3n2)CCOC42CCC2)cn1 [Example 114, 5-(4-(2-azabicyclo[2.1.1]hexan-2-yl)-8,9-dihydrospiro[[1,4]oxazino[4,3-e]purine-6,1′-cyclobutan]-2-yl)pyrimidin-2-amine] | 52.1 nM
6 | CC1(C)OCCn2c1nc1c(C3CC3)nc(-c3cnc4c(c3)CCN4)nc12 [Example 125, 4-cyclopropyl-2-(2,3-dihydro-1H-pyrrolo[2,3-b]pyridin-5-yl)-6,6-dimethyl-8,9-dihydro-6H-[1,4]oxazino[4,3-e]purine] | 626 nM
7 | CC1(C)OCCn2c1nc1c(N3CC4CCC3C4)nc(-c3cnc4[nH]cnc4c3)nc12 (centres unmarked) [Example 147] | 39.5 nM
8 | CC1(c2nc(-c3cnc(N)nc3)nc3c2nc2n3CCOC2(C)C)CC1 [Example 95, 5-(6,6-dimethyl-4-(1-methylcyclopropyl)-8,9-dihydro-6H-[1,4]oxazino[4,3-e]purin-2-yl)pyrimidin-2-amine] | 476 nM
9 | COC1CN(c2nc(-c3cnc(N)c(OC(F)F)c3)nc3c2nc2n3CCOC2(C)C)C1 [Example 149] | 73.7 nM
10 | CC1(C)OCCn2c1nc1c(C3CCC3)nc(-c3cnc(N)nc3)nc12 [Example 104, 5-(4-cyclobutyl-6,6-dimethyl-8,9-dihydro-6H-[1,4]oxazino[4,3-e]purin-2-yl)pyrimidin-2-amine] | 297 nM
11 | CC1(C)OCCn2c1nc1c(N3CC4CC3C4)nc(-c3cnc(N)cn3)cc12 [Example 118, 5-(9-(2-azabicyclo[2.1.1]hexan-2-yl)-1,1-dimethyl-3,4-dihydro-1H-pyrido[3′,4′:4,5]imidazo[2,1-c][1,4]oxazin-7-yl)pyrazin-2-amine] | 1200 nM
12 | CC1(C)OCCn2c1nc1c(N3C[C@@H]4CC(F)(F)C[C@@H]4C3)nc(-c3cnc(N)nc3)nc12 [Example 6] | 727 nM
13 | Cc1n[nH]c2ncc(-c3nc(N4CC5CC4C5)c4nc5n(c4n3)CCOC5(C)C)cc12 [Example 19, 1-(2-Aza-bicyclo[2.1.1]hex-2-yl)-8,8-dimethyl-3-(3-methyl-1H-pyrazolo[3,4-b]pyridin-5-yl)-5,6-dihydro-8H-7-oxa-2,4,4b,9-tetraaza-fluorene] | 493 nM
14 | COC1CN(c2nc(-c3cnc(N)c(OC(F)F)c3)nc3c2nc2n3CCCOC2)C1 [Example 136, 3-(difluoromethoxy)-5-(4-(3-methoxyazetidin-1-yl)-6,8,9,10-tetrahydro-[1,4]oxazepino[4,3-e]purin-2-yl)pyridin-2-amine] | 687 nM
15 | CC1(C)OCCn2c1nc1c(NC3CCCC3)nc(-c3cnc(N)nc3)nc12 [Example 123, 2-(2-aminopyrimidin-5-yl)-N-cyclopentyl-6,6-dimethyl-8,9-dihydro-6H-[1,4]oxazino[4,3-e]purin-4-amine] | 60.1 nM
16 | CC1(C)OCCn2c1nc1c(NC3CCC3)nc(-c3cnc(N)nc3)nc12 [Example 124] | 73.9 nM

Row | Structure (SMILES) | Ki
17 | CC1(C)OCCn2c1nc1c(N3CCCC3)nc(-c3cnc(N)nc3)nc12 [Example 18, 5-(8,8-Dimethyl-1-pyrrolidin-1-yl-5,6-dihydro-8H-7-oxa-2,4,4b,9-tetraaza-fluoren-3-yl)-pyrimidin-2-ylamine] | 402 nM
18 | CC1(C)OCCn2c1nc1c(N3CCC4(COC4)C3)nc(-c3cnc4[nH]cc(C#N)c4c3)nc12 [Example 42, 5-[8,8-Dimethyl-1-(2-oxa-6-aza-spiro[3.4]oct-6-yl)-5,6-dihydro-8H-7-oxa-2,4,4b,9-tetraaza-fluoren-3-yl]-1H-pyrrolo[2,3-b]pyridin-3-carbonitrile] | 4.97 nM
19 | CC1(C)OCCn2c1nc1c(N3C[C@@H](F)[C@@H](F)C3)nc(-c3cnc(N)nc3)nc12 [Example 29, 5-[1-(cis-3,4-Difluoro-pyrrolidin-1-yl)-8,8-dimethyl-5,6-dihydro-8H-7-oxa-2,4,4b,9-tetraaza-fluoren-3-yl]-pyrimidin-2-ylamine] | 297 nM
20 | CC1(C)OCCn2c1nc1c(OC3CC4CC4C3)nc(-c3cnc(N)nc3)nc12 (centres unmarked) [Example 89] | 551 nM
21 | C[C@H]1OCCn2c1nc1c(N3CC4CC3C4)nc(-c3cnc(N)nc3)nc12 (single isomer, unassigned) [Example 108] | 239 nM
22 | CC1(C)OCCn2c1nc1c(N3CC4(CCCO4)C3)nc(-c3cnc(N)nc3)nc12 [Example 51, 5-[8,8-Dimethyl-1-(5-oxa-2-aza-spiro[3.4]oct-2-yl)-5,6-dihydro-8H-7-oxa-2,4,4b,9-tetraaza-fluoren-3-yl]-pyrimidin-2-ylamine] | 907 nM
23 | Cc1c[nH]c2ncc(-c3nc(N4CC(F)C4)c4nc5n(c4n3)CCOC5(C)C)cc12 [Example 4, 1-(3-Fluoro-azetidin-1-yl)-8,8-dimethyl-3-(3-methyl-1H-pyrrolo[2,3-b]pyridin-5-yl)-5,6-dihydro-8H-7-oxa-2,4,4b,9-tetraaza-fluorene] | 9.74 nM
24 | CC1(C)OCCn2c1nc1c(N3CC4CC3CC4(F)F)nc(-c3cnc(N)nc3)nc12 (centres unmarked) [Example 11] | 262 nM
25 | CC1(C)OCCn2c1nc1c(C3CC3)nc(-c3cnc(N)c(C#N)c3)nc12 [Example 126, 2-amino-5-(4-cyclopropyl-6,6-dimethyl-8,9-dihydro-6H-[1,4]oxazino[4,3-e]purin-2-yl)nicotinonitrile] | 264 nM
26 | Cc1c[nH]c2ncc(-c3nc(N4CC5CCC4C5)c4nc5n(c4n3)CCOC5(C)C)cc12 (centres unmarked) [Example 34, 1-(2-Aza-bicyclo[2.2.1]hept-2-yl)-8,8-dimethyl-3-(3-methyl-1H-pyrrolo[2,3-b]pyridin-5-yl)-5,6-dihydro-8H-7-oxa-2,4,4b,9-tetraaza-fluorene] | 31.8 nM
27 | CC1(C)OCCn2c1nc1c(N3CC(F)(F)C3)nc(-c3cnc(N)nc3)nc12 [Example 68] | 480 nM
28 | C[C@@H]1COC(C)(C)c2nc3c(N4CC5CC4C5)nc(-c4cnc(N)nc4)nc3n21 (single isomer, unassigned) [Example 96] | 42 nM
29 | CC1(C)OCCn2c1nc1c(OCC3CC3)nc(-c3cnc(N)nc3)nc12 [Example 86] | 634 nM
30 | CCN(c1nc(-c2cnc(N)nc2)nc2c1nc1n2CCOC1(C)C)C1CC1 [Example 117] | 0.39 nM
31 | Nc1ncc(-c2nc(N3CC4CC3C4)c3nc4n(c3n2)CCOCC4)cn1 [Example 133, 5-(4-(2-azabicyclo[2.1.1]hexan-2-yl)-6,7,9,10-tetrahydro-[1,4]oxazepino[4,5-e]purin-2-yl)pyrimidin-2-amine] | 447 nM
32 | C[C@@H]1CC[C@H](C)N1c1nc(-c2cnc(N)nc2)nc2c1nc1n2CCOC1(C)C [Example 55, 5-(4-((2R,5S)-2,5-dimethylpyrrolidin-1-yl)-6,6-dimethyl-8,9-dihydro-6H-[1,4]oxazino[4,3-e]purin-2-yl)pyrimidin-2-amine] | 371 nM
